Data reported in patent US20250281621A1, “GPC3 APTAMERS AND VARIANTS AND USE THEREOF” (Guardian Therapeutics, LLC, priority 2020, published 2025).
Like-named read-outs stand apart in the source and are kept apart here.

Columns and labels:
[1] = tested on: GPC3^− HEK293 cells; assay: Flow cytometry binding control with GPC3− HEK293 cells
Description: (§1) Two independent SELEX selections were carried to select clones that specifically bind to GPC3. Seven to nine rounds of nitrocellullose filter SELEX (Jhaveri et al., In vitro selection of RNA aptamers to a protein target by filter immobilization. Curr Protoc Nucleic Acid Chem. 2001, Chapter 9: Unit 9.3. doi: 10.1002/0471142700.nc0903s00. PMID: 18428881) were preformed using recombinant GPC3 protein. DNA clones from the final rounds of SELEX were sent for next generation sequencing and the data were analyzed for abundance. The highest abundant sequences (clones) were made via chemical synthesis and used in screening. The clones were screened for GPC3 binding via flow cytometry using engineered HEK293 cells overexpressing GPC3 (GPC3+ HEK293).
(§2) Binding of aptamer variants to GPC3 was tested with melting curve analysis (thermofluorimetric analysis). The control of experiment was carried out similarly with GPC3^− HEK293 cells.

[2] = biological target: T1, GPC3 (Homo sapiens, UniProt P51654); assay: GPC3 binding via flow cytometry using GPC3+ HEK293 cells; parameters: expressed in transfected cells; host or cells: engineered HEK293 cells overexpressing GPC3; conditions: for GPC3 binding activity (MFI): GPC3^+ HEK293 cells; for Kd: flow cytometry using GPC3+ HEK293 cells
Description: as §1
Additional variants surrounding the core motif were made in which stem 2 (as depicted in FIG. 1) is extended by 1 or 2 additional base pairs (GRX1187 and GRX2101 respectively) or replaced with an alternative stem and loop sequence (GRX958). Additionally, a construct was designed in which stem 2 is closed with a 4 base loop and stem 1 is open creating a new 5′ and 3′ end, GRX2102. […] (Table 7)

[3] = Melting curve analysis (thermofluorimetric analysis); format: physicochemical; conditions: compared to original clone F14, #Min4 and #Min5
Description: as §2

[4] = biological target: T1, GPC3; assay: Binding activity of minimers incl. refolding and freeze/thaw tests
Text: When the lineal GRX8 sequence is refolded, the binding activity of GRX8 improves.
(§3) The best minimer, GRX46, as well as combinations of variants with top activities were selected for further evaluation (Table 6).

[5] = biological target: T1, GPC3; assay: Binding kinetics of top minimers (Ka, Kd, KD)
Text: as §3

[6] = biological target: T2, endogenously expressed GPC3 (Homo sapiens, UniProt P51654); assay: Binding to cancer cells endogenously expressing GPC3 (Hep3B, HepG2, NCI-H446, Huh7); conditions: data not shown; for need of refolding for maximal activity: binding to Hep3B cells
T2 construct: endogenously expressed GPC3 on different cancer cells; endogenous in cells; host or cells: Hep3B, HepG2, NCI-H446, Huh7
Text: Human hepatocellular Carcinoma cells HepG2 and Hep 3B overexpressing GPC3 were used to test the affinity of the selected positive clones. The binding studies indicate that several selected aptamer candidates (Table 3) from both libraries can bind human hepatocellular Carcinoma cells with high affinity.
A pool of partial randomization sequences from GRX8 was created and selected by cell-SELEX using GPC3^+ HEK293 cells. Those variants comprise various changes to the structural elements of GRX8, including changes to the external loop, stack, helix, hairpin loop and stem, etc. The clones were further screened with Hep3B cells and minimized based on original structure. The minimer #Min9 was further randomly mutagenized for sequence changes that can improve the binding affinity to GPC3. Another minimer variant (ID No.: GRX46)
with increased activity was further tested.

[7] = tested on: Hep3B xenograft; assay: GRX26 in Hep3B xenograft mouse model; conditions: 28 Days; for Relative tumor volume growth (Day 28): vehicle = 1.00
Description: (SEQ ID NO.: 32) (ID NO. #GRX26). GRX26 was tested in Hep3B xenograft mouse model for its activity in vivo (Table 8).

[8] = tested on: Hep3B xenograft
[9] = tested on: Hep3B xenograft; remark: listed apart in the source
Description: For each group, mice were treated with vehicle, CpG7909, or GRX51 once a day (QD) for 7 days.
At the end of the study, tumor tissues from each group were analyzed for immune cell populations by FAC Sorting.

[10] = biological target: Glypican-3 (GPC3) (UniProt P51654;P51654 P51654:25-358,P51654:359-554); assay: flow; GPC3+ HEK293 cells; conditions: tags: overexpressed in engineered HEK293 cells (GPC3+ HEK293)
[11] = 5 mg/kg, IP, QD/7Days, vehicle = 1.00

For “AAGCATTACCGGGTTGCTACCCAAGGACAAGAGTCGATGATGCTT (listed as DNA, chemistry not fully specified) [Min2, 27]”, the “GPC3 binding activity (MFI)” value [1] was 720, the “binding activity to GPC3^+ HEK293 cells compared to full sequence of clone F14” value [2] was “significantly increased” and the “GPC3 binding activity (MFI)” value [2] was 16652.

In the case of “AAGCCATTACCGGGTTGCTACCCAAGGACAAGAGTCGATGATGCTT (listed as DNA, chemistry not fully specified) [Min1, 26]”, the “GPC3 binding activity (MFI)” value [1] is reported as 579, the “binding activity to GPC3^+ HEK293 cells compared to full sequence of clone F14” value [2] is reported as “significantly increased” and the “GPC3 binding activity (MFI)” value [2] is reported as 11403.

For “AAGCCATTACCGGGTTGCTACCCGAGGACAAGAGTCGATGATGCTT (listed as DNA, chemistry not fully specified) [Min3, 28]”, the “GPC3 binding activity (MFI)” value [1] was 444 and the “GPC3 binding activity (MFI)” value [2] was 377.

In the case of “AAGCCATTATCGGGTTGCTACCCAAGGACAAGAGTCGATGATGCTT (listed as DNA, chemistry not fully specified) [Min4, 29]”, the “GPC3 binding activity (MFI)” value [1] is reported as 1072, the “binding activity to GPC3^+ HEK293 cells compared to full sequence of clone F14” value [2] is reported as “significantly increased” and the “GPC3 binding activity (MFI)” value [2] is reported as 23261.

In the case of “CATTATCGGGTTGCTACCCAAGGACAAGAGTCGATGATG (listed as DNA, chemistry not fully specified) [Min5, 30]”, the “GPC3 binding activity (MFI)” value [1] is reported as 946, the “binding activity to GPC3^+ HEK293 cells compared to full sequence of clone F14” value [2] is reported as “significantly increased” and the “GPC3 binding activity (MFI)” value [2] is reported as 19484.

With “CATTATCGGGTTGCTACCCGAGGACAAGAGTCGATGATG (listed as DNA, chemistry not fully specified) [Min6, 31]” the “GPC3 binding activity (MFI)” value [1] was 507 and the “GPC3 binding activity (MFI)” value [2] was 3619.

Molecule “CGGGAGUCCUAGGAAGGACGGGUUGCUACCCAAGUCCCG (listed as RNA, chemistry not fully specified) [GRX2102, 79]” has a Kd [2] of 26.9 nM.

With “CGTCATCGGGTTGCTACCCAAGGACAAGAGTCGATGACG (listed as DNA, chemistry not fully specified) [Min9, 32]” the thermal stability [3] was “thermally more stable”.

For “CGTCGTCGGGTTGCTACCCAAGGACAAGAGTCGACGACG (listed as DNA, chemistry not fully specified) [Min9.2, 33]”, the thermal stability [3] was “thermally more stable”.

For “CGUCAUCGGGUUGCUACCCAAGGACAAGAGUCGAUGACG (RNA aptamer, any chemical modification not given here, further chemistry not given here) [GRX8]”, the “binding activity when the lineal sequence is refolded” value [4] was “improves”, the “binding affinity to exogenously expressed GPC3” value ([4]; FIG. 2) was “high binding affinity” and the “stability of activity in freeze/thaw tests” value ([4]; frequent freeze/thaw) was “stable and not affected by the frequent freeze/thaw tests”. It also gave a Ka [5] of 61900 M⁻¹ s⁻¹.

In the case of “CGUCAUCGGGUUGCUACCCAAGGCACCAGGAGGUGCGAUGACG (listed as RNA, chemistry not given here) [GRX2101, 78]”, the Kd [2] is reported as 29.3 nM.

With “CGUCAUCGGGUUGCUACCCAAGGCCAGGAGGCGAUGACG (listed as RNA, chemistry not fully specified) [GRX49, 25]” the “binding to endogenously expressed GPC3 on cancer cells” value ([6]; Hep3B, HepG2, NCI-H446, Huh7) was “selectively bind”, the “need of refolding for maximal activity” value [6] was “do not require refolding for maximal activity” and the Ka [5] was 199000 M⁻¹ s⁻¹. It also gave a Kd [2] of 9 nM.

With “CGUCAUCGGGUUGCUACCCAAGGCCCAGGAGGGCGAUGACG (listed as RNA, chemistry not given here) [GRX1187, 77]” the Kd [2] was 64.2 nM.

In the case of “CGUCAUCGGGUUGCUACCCAAGGUCAAGAGACGAUGACG (listed as RNA, chemistry not fully specified) [GRX46]”, the “binding activity and refolding behavior relative to GRX8” value ([4]; data not shown) is reported as “similar, enhanced binding activity” and the Ka [5] is reported as 55400 M⁻¹ s⁻¹.

With “CGUCAUCGGGUUGCUACCCAAGGUCAGGAGACGAUGACG (listed as RNA, chemistry not given here) [GRX8 with triple]” the “need of refolding for maximal activity” value [6] was “do not require refolding for maximal activity” and the Ka [5] was 112000 M⁻¹ s⁻¹.

In the case of “CGUCAUCGGGUUGCUACCCAAGGUCAGGUGACGAUGACG (listed as RNA, chemistry not given here) [GRX8 with QUAD6]”, the “need of refolding for maximal activity” value [6] is reported as “do not require refolding for maximal activity” and the Ka [5] is reported as 201000 M⁻¹ s⁻¹.

With “DM1-CGTCATCGGGTTGCTACCCAAGGACAAGAGTCGATGACG [GRX26]” the “% of body weight loss” value ([7]; 2.5 mg/kg) was 10.67%, the “Relative tumor volume growth (Day 28)” value ([7]; 2.5 mg/kg) was 0.69 and the “% of body weight loss” value ([7]; 10 mg/kg, IP/QD) was 14.86%. The “Relative tumor volume growth (Day 28)” value ([7]; 10 mg/kg, IP/QD) was 0.46.

In the case of “GACUAGAUCGGGUUGCUACCCAAGCUCCGGUUCAGAUCGAUGGAGGAUCUAGUC (listed as RNA, chemistry not fully specified) [GRX958, 76]”, the Kd [2] is reported as 33.1 nM.

In the case of “GGCATCGGGTTGCTACCCAAGGACAAGAGTCGATGCC (listed as DNA, chemistry not fully specified) [Min11, 34]”, the thermal stability [3] is reported as “thermally more stable”.

For Keytruda: the PD-1R inhibitor Keytruda, the “% of body weight loss” value ([8]; 10 mg/kg) was 3.66%, the “reduction of tumor size” value ([8]; 10 mg/kg once every 3 days i.p., 11 days) was 18% and the “Relative tumor volume growth (Day 11)” value ([8]; 10 mg/kg, vehicle = 1.00) was 0.82.

For TCGTCGTTTTGTCGTTTTGTCGTT [CpG], the “Relative tumor volume growth (Day 7)” value [9, 11] was 0.57, the “Relative tumor volume growth (Day 18)” value [9, 11] was 0.47 and the “final immune: tumor cell ratio relative to the vehicle control” value ([9]; 7-day on/7-day off daily dosing schedule) was 1.51±0.95.

For CGUCAUCGGGUUGCUACCCAAGGCACCAGGAGGUGCGAUGACG (ssRNA, fully 2'-OMe) [GRX2101], the Kd ([10]; stem 2 extended by 2 bp) was 29.3 nM.

B1: GGGAGACAAGAATAAAGCGAGTTTGAAGCCATTACCGGGTTGCTACCCAAGGACAAGAGTCGATGATGCTTAGCTAG (nucleic acid)
chain: GGGAGACAAGAATAAAGCGAGTTTGAAGCCATTACCGGGTTGCTACCCAAGGACAAGAGTCGATGATGCTTAGCTAG
modifications: listed as DNA, chemistry not fully specified
notes: 12
With B1 the “GPC3 binding activity (MFI)” value [1] was 1040 and the “GPC3 binding activity (MFI)” value [2] was 5050.

With CGGGAGUCCUAGGAAGGACGGGUUGCUACCCAAGUCCCG (ssRNA, fully 2'-OMe) [GRX2102] the Kd ([10]; stem 2 closed with 4-base loop, stem 1 open (new 5' and 3' ends)) was 26.9 nM.

Work on CGUCAUCGGGUUGCUACCCAAGGCCCAGGAGGGCGAUGACG (ssRNA, fully 2'-OMe) [GRX1187] yielded a Kd ([10]; stem 2 extended by 1 bp) of 64.2 nM.

B2: GRX958 (ssRNA)
RNA: GACUAGAUCGGGUUGCUACCCAAGCUCCGGUUCAGAUCGAUGGAGGAUCUAGUC
modifications: fully 2'-OMe
With B2 the Kd ([10]; stem 2 replaced with alternative stem and loop) was 33.1 nM.
